This is an account of results in US20100047173A1, “Methods for Using Optical Agents” (priority 2006, published 2010).

Series [1] can be described thus: In vivo fluorescence time dependence at the ear after ICG bolus (blood clearance by the liver), normal vs partially hepatectomized rats. Details: species or system rat. The protocol: ICG in powdered form was obtained from Sigma (St. Louis, Mo.). Solutions were made by diluting the appropriate amount of ICG in 10 mL of distilled water. Concentrations less than 1 mM were made by serial dilution of a 1 mM stock solution. For ICG fluorescence detection, a nominal 780 nm collimated solid state laser source was employed (LaserMax Inc. model No. LAS-300-780-5). The laser source was directed into the end of a 3.2 mm diameter glass fiber optic bundle (Oriel No. 77526). The other end of this laser delivery bundle was placed approximately 1 cm from the rat ear at an approximate 45° angle. A second similar fiber optic bundle for use as the fluorescence detection conduit was placed approximately 1 cm from the ear at an approximate 30° angle. The exit end of the detection fiber bundle was positioned at the focal length of a 20 mm focal length lens. […] A digital voltmeter monitored the output signal. […]
Female Fischer 344 rats weighing 173-195 g were used. […] The dye was subsequently administered via the indwelling catheter, and the clearance of the agent monitored. […]
To verify that the fluorescence decay curves were related to liver function, and to assess this methodology's feasibility to determine impaired liver function, the following experiment was done. […] A measurement of the time dependence of fluorescence at the ear pre- and post-bolus injection of the ICG solution was measured next. […]

The nature of series [2]: Ex-vivo continuous wave fluorescence imaging of caecum and lower large intestine after IV ICG. It counts as in vivo. As to conditions: rat, post-IV administration of aqueous ICG solution, 780 nm excitation, 830 nm detection. As to the method: ICG in powdered form was obtained from Sigma (St. Louis, Mo.). Solutions were made by diluting the appropriate amount of ICG in 10 mL of distilled water. Concentrations less than 1 mM were made by serial dilution of a 1 mM stock solution.
The animals were anesthetized with rat cocktail (xylazine; ketamine; acepromazine 1.5: 1.5: 0.5) at 0.8 mL/kg via intraperitoneal injection. A 21 gauge butterfly infusion set equipped with a stopcock and two syringes containing heparinized saline was placed into the lateral tail vein of the rat. Patency of the vein was checked prior to administration of the agent via the butterfly apparatus.
A simple noninvasive in vivo continuous wave fluorescence imaging apparatus was employed as described below. Light from a LaserMax Inc. laser diode of nominal wavelength 780 nm and nominal power of 40 mW was launched into a fiber optic bundle. A defocusing lens in position after the bundle expanded the beam such that most of the rat was illuminated. The laser power at the output of the bundle was approximately one half of the input power. […]
The above imaging system may also used to view and quantify ex-vivo organs and tissues. […] Blue is indicative of high fluorescence, and red is indicative of low fluorescence.

Series [3] in a line: Open-surgery fluorescence imaging of the cystic duct after IV fluorescein. The class given is in vivo. The following applies: anesthetized pig, approximately 80 minutes post-IV administration of 6 mL of 20 mg/mL fluorescein in PBS. As to the method: FIG. 1 depicts green fluorescence from fluorescein traveling through a cystic duct in an anesthetized pig. The image was taken during open surgery, post-IV administration of 6 mL of a 20 mg/mL concentration of fluorescein in PBS.
The image was taken during open surgery, approximately 80 minutes post-IV administration of 6 mL of a 20 mg/mL concentration of fluorescein in PBS. The pig weighed about 82 pounds.

Structures are written as SMILES.

For `CC1(C)C(/C=C/C=C/C=C/C=C2\N(CCCCS(=O)(=O)[O-])c3ccc4ccccc4c3C2(C)C)=[N+](CCCCS(=O)(=O)[O-])c2ccc3ccccc3c21.[Na+]` [ICG], the “fluorescence decay time, impaired liver function versus normal liver function” value in series [1] (partially hepatectomized rats (33%-38% of liver ligated) vs normal rat, single exponential fit) is recorded as “almost an order of magnitude longer”. In series [1] (rat, after about 15 minutes post-bolus injection of 500 mL of 1.007 mM ICG solution (FIG. 3)), the “loss of initial fluorescence signal at the ear” value is on record as “approximately 90%”. The “fluorescence of feces in ex-vivo intestine (hepatobiliary excretion)” value in series [2] is recorded as “feces that fluoresce due to the ICG within”.

For the compound `O=C1OC2(c3ccc(O)cc3Oc3cc(O)ccc32)c2ccccc21` [fluorescein], in series [3], the “appearance of fluorescence in the cystic duct” value is “fluorescence from fluorescein traveling through the cystic duct”.
